Measured values published in patent US5786137A, “Method for assaying components in an enzyme-protein substrate system” (Research Foundation of State University of New York, priority 1996, dated 1998).

Experiments:
[1] = test system: plasmin (binding to and degradation of FITC-fibrinogen); test: Plasmin-mediated fibrinogenolysis assay: fluorescence dequenching of FITC-fibrinogen; format: biochemical
Protocol: To illustrate plasmin-mediated fibrinogenolysis into degradation products, 10 nM of plasmin was mixed for about 5 seconds in the reaction buffer containing 250 nM FITC-fibrinogen. […] The action of plasmin on FITC-fibrinogen produced an immediate large increase in fluorescence intensity (dequenching) in a plasmin-dependent manner (FIG. 4). The detection limit has been found under routine conditions to be at least 10 picomolar plasmin.
In that competition, some plasmin was able to bind fibrinogen as indicated by the initial rate of dequenching.

[2] = test system: fibrinogen (FITC-fibrinogen polymerized by thrombin); conditions: 1 U/ml thrombin
Protocol: Fibrinogen was labeled with FITC using a 0.1M sodium bicarbonate buffer. After stopping the reaction with hydroxylamine (0.15M final concentration), the FITC-fibrinogen was dialyzed extensively before storage. The buffer for the polymerization reaction comprised either 0.1M NaCl, 0.05M Tris-HCl, 5 mM CaCl2 ("buffer 1") or 0.3M NaCl, 0.05M Tris-HC1, 5 mM CaCl2 ("buffer 2"). Cuvettes were incubated with 10 μM bovine serum albumin for 30 minutes to minimize adsorption of substrate to the cuvette walls.
In a series of reactions to produce fibrinogen polymerization into fibrin fibers, thrombin (final concentrations ranging from 0.1 U/ml, 0.25 U/ml, 0.5 U/ml and 1 U/ml) was mixed for about 5 seconds in either buffer 1 or buffer 2 containing a dilute FITC-fibrinogen (<40 nM) solution. Polymerization was monitored by exciting the reaction mixture with blue light (488 nm) and monitoring the fluorescence emission at 515 nm using a fluorimeter.

NCCCCCC(=O)O [ε-amino caproic acid] was tested, and the “progression of fibrinogenolysis (cessation of dequenching)” value ([1]; addition of 10 mM ε-amino caproic acid during fibrinogenolysis) was “immediately inhibited”, the inhibition of dequenching ([1]; excess ε-amino caproic acid added after plasmin-mediated fibrinogenolysis was initiated (FIG. 8)) was “dose-dependent inhibition” and the dequenching rate ([1]; plasmin preincubated with 10 mM ε-amino caproic acid before addition of fluorescent-labeled fibrinogen (FIG. 7)) was “greatly reduced”.

With Gly-Pro-Arg-Pro [GPRP] the thrombin-induced quenching prevented ([2]; 100 μM GPRP added before polymerization) was “Over 80%” and the “rate and extent of quenching associated with polymerization” value ([2]; 0.1, 10 and 100 μM GPRP) was “reduced in a dose-dependent manner”.
